Data from patent US20080242636A1, “MODIFIED CYCLODEXTRIN SULFATE-71 (TERIGYN) AS A MICROBICIDE AGENT” (priority 2007, published 2008).

Key:
[1] = system: HIV-1 R5 viruses; assay: TZM-bL luciferase assay, R5 viruses; type: cell-based; conditions: TZM-bL cells, 48 hr at 37 C
Protocol: (§1) To further determine the inhibition of Terygyn of either CXCR4 or R5 viruses in cervical explants, various concentrations of Terygyn were cultured in TZM-bL cells with TCID50 HIV-1. TZM-bL are X4 positive HeLa cell clones that have been engineered to express CD4 and CCR5 and integrates a reporter gene for firefly luciferase and E coli b-galactosidase. Virus and drugs were left in culture for 48 hr at 37 C and luciferase assay determined thereafter.

[2] = rats, safety trials; cited from earlier work
[3] = system: HIV-1 X4 viruses; assay: TZM-bL luciferase assay, X4 viruses; type: cell-based; conditions: TZM-bL cells, 48 hr at 37 C
Protocol: as §1

[4] = system: Primary peripheral blood mononuclear cells and MT4 cell line; type: cell-based
Protocol: (§2) Primary peripheral blood mononuclear cells and a MT4 cell line were pretreated with varying concentrations of terygyn before infection with LAV-1, a laboratory strain of HIV-1. As a control, a set of similar cells were not pretreated with the compound. Anti-HIV activity was measured using p24 antigen testing. Terygyn achieved total HIV inhibition (IC100) at 1 ug/ml. Cell toxicity was not observed till the concentration of terygyn was 10 ug/ml. […] Terygyn's ability to inhibit HIV at lower concentration makes it a more attractive compound for safe clinical use.

[5] = system: LAV-1, a laboratory strain of HIV-1; assay: p24 antigen anti-HIV assay in pretreated PBMC and MT4 cells infected with LAV-1; type: cell-based
Protocol: as §2

[6] = system: HIV; conditions: as described by Tanabe Seiyaku 1991; cited from earlier work
[7] = IC50 comparison with literature value
[8] = PBMC and MT4 pretreated, LAV-1, p24 antigen

O=S(=O)([O-])OC[C@@H]1O[C@@H]2O[C@H]3[C@H](OS(=O)(=O)[O-])[C@H](OCc4ccccc4)[C@@H](O[C@H]4[C@H](OS(=O)(=O)[O-])[C@H](OCc5ccccc5)[C@@H](O[C@H]5[C@H](OS(=O)(=O)[O-])[C@H](OCc6ccccc6)[C@@H](O[C@H]6[C@H](OS(=O)(=O)[O-])[C@H](OCc7ccccc7)[C@@H](O[C@H]7[C@H](OS(=O)(=O)[O-])[C@H](OCc8ccccc8)C(O[C@H]8[C@H](OS(=O)(=O)[O-])[C@H](OCc9ccccc9)C(O[C@H]1[C@H](OS(=O)(=O)[O-])[C@@H]2OCc1ccccc1)O[C@H]8COS(=O)(=O)[O-])O[C@H]7COS(=O)(=O)[O-])O[C@H]6COS(=O)(=O)[O-])O[C@H]5COS(=O)(=O)[O-])O[C@H]4COS(=O)(=O)[O-])O[C@H]3COS(=O)(=O)[O-].[Na+].[Na+].[Na+].[Na+].[Na+].[Na+].[Na+].[Na+].[Na+].[Na+].[Na+].[Na+].[Na+].[Na+] [Terygyn, Tetradecasodium heptakis (2-0 benzyl)β-cyclodextrin tetradecasulfate]
IC50 R5 viruses [1]: 0.13 ± 0.05 µg/mL
tolerability [2]: 125 mg/kg/day
IC50 X4 viruses [3]: 0.88 ± 1.2 µg/mL
concentration until which cell toxicity was not observed [4]: 10000 ng/mL
fold more potent than PRO 2000 [5, 7]: fifty-fold
fold more potent than Ushercell [5, 7]: 100 fold
in vitro antiviral activity IC50 [5, 8]: 0.5 µg/mL
total HIV inhibition (IC100) [5, 8]: 1 µg/mL
anti-HIV activity in vitro [6]: 0.98 µg/mL
